Results reported in patent US20230134760A1, “CAR AND NRF2 DUAL ACTIVATOR AGENTS FOR CYCLOPHOSPHAMIDE-BASED AND DOXORUBICIN-BASED TREATMENTS OF CANCER” (priority 2020, published 2023).

Assays:
hCAR or Nrf2 = assay: all curve and EC50 curve of selected compounds (FIG. 22-35); type: cell-based; details: for Emax: figure legend values
Experimental: Cell lysates were assayed for luciferase activity and normalized against the activity of the Renilla luciferase using a Dual-Luciferase Kit (Promega). […] Compound 2, DL7076, was selected for further evaluation based on its effects in activating hCAR and Nrf2 using the HepG2 cell reporter assay (FIGS. 37a-37c).

H9c2 cells = assay: Oxidative stress imaging (DFDA) in H9c2 cells; type: cell-based, rat; details: H9c2, DOX 1, 2.5, 5 μM, 6 hours
Experimental: H9c2 rat cardiomyocytes seeded at 0.8×10^5 in 24-well plates. […] Cells were washed 3× with PBS. Subsequently, 0.5 mL of WEM containing 20 μM 2'-7'-dichlorofluorescein diacetate (DFDA) was added to each well. The cells were incubated at 37° C. and 5% CO2 for 30 min. The oxidation of DFDA to the fluorescent dichlorofluorescein was viewed using fluorescence microscopy (Nikon Eclipse Ti) with a FITC filter at […] and quantified using Brightspot detection for fluorescent detection of triplicate images and normalized to the vehicle control (0.1% DMSO). Cells on coverslips from co-culture experiments were fixed using 4% paraformaldehyde and permealized using Triton-X 100. A primary antibody for mouse anti-phospho-H2AX ([…]) was incubated overnight. Goat anti-mouse IgG Fluor Alexa 488 (1:200) was incubated for 2 hrs. Phosphorylation was calculated through fluorescence intensity all normalized to the vehicle control.

cleaved caspase-3 = assay: Cleaved caspase-3 Western blot in H9c2 cardiomyocytes; type: cell-based, rat; details: H9c2, DOX 2.5 μM
Excerpt: Protein was harvested using cell lysis buffer (Cell Signaling Technology, Danvers, Mass.) with a complete protease inhibitor cocktail (Roche, Mannheim, Germany) prior to homogenizing via sonification. Homogenized protein from treated HPH, H9c2, BT549, and MDA-MB-231 cells were resolved on NuPage Novex Bis-Tris 4-12% gels (Life Technologies) or NuPage Novex Bis-Tris 12% gel and transferred through electrophoresis onto immobilon-P polyvinylidene difluoride (PVDF) membranes. Membranes were blocked with 5% BSA or 5% milk in Tris-Buffer saline with Tween 20 (TBST). Further, membranes were incubated with specific antibodies against human CYP2B6 (1:1000, Abcam), CYP3A4 (1:1000, Millipore Sigma), HO-1 (1:1000, Abcam), cleaved caspase-3 (1:1000 Cell Signaling Technologies), Nrf2 (1:1000, Abcam), TATA-Binding Protein (1:500, Santa Cruz) β-actin (1:3000, Millipore Sigma) at 4° C. overnight. Following overnight incubation, horseradish peroxidase goat anti-mouse or anti-rabbit IgG antibodies were used for secondary incubation. Membranes were developed using SuperSignal West Pico Chemiluminescent Substrate (Thermo Scientific) or Radiance Q (Azure). Two TNBC cell lines, cardiomyocytes, and HPH protein samples were isolated and resolved on a 4-12% or 12% SDS PAGE gel followed by electrophoretic transfer to a PVDF membrane. Membranes were probed 1:1000 for CYP2B6, CYP3A4, Nrf2, cleaved caspase 3, and HO-1 using β-actin (1:3000) or TBP (1:500) as a loading control.

BT549 cells = assay: HPH/BT549 co-culture, CPA cytotoxicity (CCK8); type: cell-based; details: HPH/BT549 coculture, CPA 250, 500, 1000 μM, 48 hours
Experimental: HPH were cultured in collagen-coated 24 well plates and pre-treated with vehicle control (0.1% DMSO), CITCO (1 μM) or DL7076 (5 μM or 10 μM) for 24 h. […] Following the 24 h pre-treatment, coverslips were combined in hepatocyte seeded wells and exposed to designated concentrations of cyclophosphamide in the presence or absence of DL7076 for various time intervals, as indicated.
H9c2 cells were seeded 0.8×10^5 in 24-well plates. Following cell attachment, a 2 h pre-treatment with vehicle control (0.1% DMSO), SFN (2.5 μM) or DL7076 (1 μM, 5 μM, or 10 μM) was done followed by doxorubicin (2.5 μM) exposure for 22 h. Co-culture cells were assembled and treated with cyclophosphamide and doxorubicin as indicated. A Cell Counting Kit-8 (Enzo) assay was carried out. Cell viability was described as a percent of vehicle control (0.1% DMSO). Cardiomyocyte, human iPSC-derived cardiomyocytes, and BT549 viability was determined with a 1 hr incubation of 6% CCK8 in WEM.

Work on `O=C(NCCN=C=S)c1c(-c2ccc3ccccc3c2)nc2occn12` [DL7009, N-(2-Isothiocyanatoethyl)-6-(naphthalen-2-yl)imidazo[2,1-b]oxazole-5-carboxamide] yielded an EC50 (hCAR or Nrf2) of 930 nM and an Emax (hCAR or Nrf2) of 1.4.
In the case of `CC(CN=C=S)NC(=O)c1c(-c2ccc3ccccc3c2)nc2occn12` (stereo not drawn) [DL7091, N-(1-Isothiocyanatopropan-2-yl)-6-(naphthalen-2-yl)imidazo[2,1-b]oxazole-5-carboxamide], the EC50 (hCAR or Nrf2) is reported as 4100 nM and the Emax (hCAR or Nrf2) is reported as 3.6.
In the case of `O=C(NCCCCN=C=S)c1c(-c2ccc3ccccc3c2)nc2occn12` [DL7101, N-(4-Isothiocyanatobutyl)-6-(naphthalen-2-yl)imidazo[2,1-b]oxazole-5-carboxamide], the EC50 (hCAR or Nrf2) is reported as 420 nM and the Emax (hCAR or Nrf2) is reported as 1.6.
`O=C(c1c(-c2ccc3ccccc3c2)nc2occn12)N1CCC(N=C=S)CC1` [DL7077, (4-Isothiocyanatopiperidin-1-yl)(6-(naphthalen-2-yl)imidazo[2,1-b]oxazol-5-yl)methanone] showed an EC50 (hCAR or Nrf2) of 4800 ± 210 nM and an Emax (hCAR or Nrf2) of 1.8.
With `CC(CNC(=O)c1c(-c2ccc3ccccc3c2)nc2occn12)N=C=S` (stereo not drawn) [DL7092, N-(2-Isothiocyanatopropyl)-6-(naphthalen-2-yl)imidazo[2,1-b]oxazole-5-carboxamide] the EC50 (hCAR or Nrf2) was 32000 nM and the Emax (hCAR or Nrf2) was 6.0.
`O=C(N[C@@H]1CCCC[C@H]1N=C=S)c1c(-c2ccc3ccccc3c2)nc2occn12` (stereo in doubt) [DL7096, N-((1R,2R)-2-Isothiocyanatocyclohexyl)-6-(naphthalen-2-yl)imidazo[2,1-b]oxazole-5-carboxamide] gave an EC50 (hCAR or Nrf2) of 330 nM and an Emax (hCAR or Nrf2) of 1.1.
Compound `O=C(NCC(N=C=S)c1ccccc1)c1c(-c2ccc3ccccc3c2)nc2occn12` (stereo not drawn) [DL7055-2, N-(2-Isothiocyanato-2-phenylethyl)-6-(naphthalen-2-yl)imidazo[2,1-b]oxazole-5-carboxamide] has an EC50 (hCAR or Nrf2) of 19000 ± 80 nM and an Emax (hCAR or Nrf2) of 6.2.
`O=C(NCCCN=C=S)c1c(-c2ccc3ccccc3c2)nc2occn12` [DL7087, N-(3-Isothiocyanatopropyl)-6-(naphthalen-2-yl)imidazo[2,1-b]oxazole-5-carboxamide] was tested, and the EC50 (hCAR or Nrf2) was 1100 ± 430 nM and the Emax (hCAR or Nrf2) was 1.27.
In the case of `COc1cccc2c1C(=O)c1c(O)c3c(c(O)c1C2=O)C[C@@](O)(C(=O)CO)C[C@@H]3O[C@H]1C[C@H](N)[C@H](O)[C@H](C)O1` [DOX, doxorubicin], the “ROS (fluorescence intensity), DOX alone” value (H9c2 cells) is reported as “concentration dependently increases ROS” and the “cleaved caspase-3 expression, DOX alone” value (cleaved caspase-3) is reported as “abundance in the expression of cleaved caspase-3”.
For `O=P1(N(CCCl)CCCl)NCCCO1` (stereo not shown) [CPA, cyclophosphamide], the “BT549 viability, CPA alone” value (BT549 cells) was “decreased the viability of the BT549 cells in a concentration-dependent manner”.
